Tests used:
PPARβ = test: PPAR binding in LVs of twenty month old SHHF rats on linoleic acid supplement; type: in vivo, rat; details: FIG. 13
Text: Peroxisome Proliferator-Activated Receptors: Peroxisome proliferator-activated receptors (PPARs) are a family of nuclear transcription factors comprised of PPARα, PPARγ, and PPARβ (also called PPARδ). […] Alteration in PPAR isoform levels results in CL changes, and it is well established that the natural activator for PPARs are polyunsaturated fatty acids, such as 18:2. […] PPARβ is currently believed to be the most pharmacologically promising of the three isoforms. Linoleic acid supplementation results in an increase in PPARβ binding, FIG. 13.

SHHF rats = test: Long-term diet study in SHHF rats (fifteen to twenty-one months of age); type: in vivo, rat
Protocol: Experiments were performed to determine whether the amount of (18:2)4CL in vivo may be altered with diet and, if so, whether this capability may be used to influence the time course of heart failure in SHHF rats. The two diets studied were a linoleic acid-rich safflower oil diet and a diet supplemented with lard.
Lean male SHHF rats aged eight weeks and fifteen months were used in the studies. […] The progression toward heart failure in SHHF rats shares a wide variety of marked similarities to the progression toward heart failure in humans.
To study the normal timecourse of HF, male SHHF rats were placed on special diets for six months, from fifteen to twenty-one months of age. This timecourse was chosen, because fifteen months is the time when SHHF rats start to progress from hypertension to HF. By twenty-one months most controls should be showing signs of overt HF.

[1] = tested on: fibroblasts from Barth Syndrome patients; details: fibroblasts supplemented with 18:2; cited from earlier work
TAB rats = test: SC-26196 fed in chow to TAB rats with induced heart failure; type: in vivo, rat
Text: Δ5 Desaturase and Δ6 Desaturase: Δ6 desaturase mRNA increases with heart failure in SHHF rats (FIG. 11). The Δ5 desaturase and Δ6 desaturase inhibitor SC-26196 (Pfizer) was fed to TAB rats in which heart failure was induced three weeks after TAB. The rats were allowed to reach a pre-failure state for a week and then the drug, SC-26196, was given in the chow for two weeks. […] Use of the Δ5 desaturase and Δ6 desaturase inhibitor, SC-26196, improved the heart function of SHHF rats and caused an increase in linoleic acid and a decrease in arachidonic acid levels in the heart.
Rapid induction of HF was studied using eight week old male SHHF rats maintained on a control (Purina 5001) diet since weaning from their mothers. Rapid HF is induced by transaortic banding (TAB) accompanied by a high salt diet for four weeks (TAB/HS). Rats are used for experiments four weeks following TAB/HS treatment.

Row | SMILES | PPARβ binding (PPARβ) | left ventricular dimension (SHHF rats; 18:2 supplementation) | systolic function (SHHF rats; 18:2 supplementation) | survivability / survival of SHHF rats (SHHF rats; compared to lard supplemented or standard chow diets, FIG. 7) | amount of (18:2)4CL [1] | arachidonic acid levels in the heart (TAB rats; SHHF rats) | linoleic acid levels in the heart (TAB rats; SHHF rats) | survivability of SHHF rats (TAB rats; given in the chow) | production of arachidonic acid from linoleic acid (TAB rats; given in the chow for two weeks) | cardiac function (fractional shortening) (TAB rats; given in the chow for two weeks, FIG. 12A) | level of (18:2)4CL (TAB rats; given in the chow for two weeks, FIG. 12B)
1 | CCCCC/C=C\C/C=C\CCCCCCCC(=O)O [Linoleic acid, linoleic acid] | increase | Trends for improvement | Trends for improvement | significant increase | increased | – | – | – | – | – | –
2 | N#CC(CCCN1CCN(/N=C/c2cccnc2)CC1)(c1ccccc1)c1ccccc1 [SC-26196] | – | – | – | – | – | decrease | increase | improved | effectively blocked | improved | increased

Reference: patent publication US20080318909A1, “Use Of Linoleic Compounds Against Heart Failure” (priority 2007, published 2008)
